Laboratory results taken from ChEMBL document CHEMBL1201862, “PubChem BioAssay data set” (2004).
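48-hour exposure; five concentrations; linearly interpolated endpoints. Abbreviation: GI50, concentration required for 50% inhibition of growth.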 Calls of active or inactive are those of the source. Cut-off read from the data, not from the text of the source: active = GI50 up to about 1.1 µM and inactive = higher.

Tests used:
Assay in all cases: NCI-60 cell line screen, 48 h
[1] = tested on: OVCAR-5
[2] = tested on: SF-295
[3] = tested on: SK-MEL-28
[4] = tested on: COLO 205
[5] = tested on: Hs-578T
[6] = tested on: HCC 2998
[7] = tested on: U-251
[8] = tested on: SNB-19
[9] = tested on: ACHN
[10] = tested on: TK-10
[11] = tested on: UO-31
[12] = tested on: SW-620
[13] = tested on: SF-539
[14] = tested on: SNB-75
[15] = tested on: HL-60
[16] = tested on: OVCAR-3
[17] = tested on: M14
[18] = tested on: UACC-62
[19] = tested on: SR
[20] = tested on: HOP-62

O=C1CC2OCC=C3CN4CCC56c7ccccc7N1C5C2C3CC46O (centres undefined)
GI50 [1]: > 100 µM (inactive)
GI50 [2]: > 100 µM (inactive)
GI50 [3]: > 100 µM (inactive)
GI50 [4]: > 100 µM (inactive)
GI50 [5]: > 100 µM (inactive)
GI50 [6]: > 100 µM (inactive)
GI50 [7]: > 100 µM (inactive)
GI50 [8]: > 100 µM (inactive)
GI50 [9]: > 100 µM (inactive)
GI50 [10]: > 100 µM (inactive)
GI50 [11]: > 100 µM (inactive)
GI50 [12]: > 100 µM (inactive)
GI50 [13]: > 100 µM (inactive)
GI50 [14]: > 100 µM (inactive)
GI50 [15]: > 100 µM (inactive)
GI50 [16]: > 100 µM (inactive)
GI50 [17]: > 100 µM (inactive)
GI50 [18]: > 100 µM (inactive)

O=C(CCNC12CC3CC(CC(C3)C1)C2)c1ccccc1
GI50 [1]: 21.2 µM (inactive)
GI50 [2]: 20 µM (inactive)
GI50 [3]: 22.3 µM (inactive)
GI50 [4]: 15 µM (inactive)
GI50 [6]: 13.3 µM (inactive)
GI50 [7]: 15.1 µM (inactive)
GI50 [8]: 47 µM (inactive)
GI50 [9]: 25.9 µM (inactive)
GI50 [10]: 18.2 µM (inactive)
GI50 [11]: 25.1 µM (inactive)
GI50 [12]: 17.3 µM (inactive)
GI50 [13]: 20.9 µM (inactive)
GI50 [14]: 33 µM (inactive)
GI50 [15]: 10.3 µM (inactive)
GI50 [19]: 13.4 µM (inactive)
GI50 [16]: > 10 µM (inactive)
GI50 [17]: 17.8 µM (inactive)
GI50 [18]: 19.6 µM (inactive)

COc1c2ccoc2nc2c(OC)c(OCC(O)C(C)(C)O)ccc12 (centres undefined) [EVOXINE]
GI50 [1]: > 100 µM (inactive)
GI50 [2]: > 100 µM (inactive)
GI50 [3]: > 100 µM (inactive)
GI50 [4]: > 100 µM (inactive)
GI50 [5]: > 100 µM (inactive)
GI50 [6]: > 100 µM (inactive)
GI50 [7]: > 100 µM (inactive)
GI50 [8]: > 100 µM (inactive)
GI50 [9]: > 100 µM (inactive)
GI50 [10]: > 100 µM (inactive)
GI50 [11]: > 100 µM (inactive)
GI50 [12]: > 100 µM (inactive)
GI50 [13]: > 100 µM (inactive)
GI50 [14]: 63.1 µM (inactive)
GI50 [15]: > 100 µM (inactive)
GI50 [16]: > 100 µM (inactive)
GI50 [17]: > 100 µM (inactive)
GI50 [18]: > 100 µM (inactive)

O=C(NNC(=O)/C(=C/c1cccc([N+](=O)[O-])c1)NC(=O)c1ccccc1)Nc1ccc(Cl)cc1
GI50 [1]: 18.3 µM (inactive)
GI50 [2]: 18.7 µM (inactive)
GI50 [3]: 15.5 µM (inactive)
GI50 [4]: 13.4 µM (inactive)
GI50 [6]: 13.1 µM (inactive)
GI50 [7]: 14.2 µM (inactive)
GI50 [8]: 12.7 µM (inactive)
GI50 [9]: 14 µM (inactive)
GI50 [10]: 15.5 µM (inactive)
GI50 [11]: 13.5 µM (inactive)
GI50 [12]: 15.1 µM (inactive)
GI50 [13]: 16.7 µM (inactive)
GI50 [14]: 13.6 µM (inactive)
GI50 [15]: 6.5 µM (inactive)
GI50 [20]: 14.3 µM (inactive)
GI50 [19]: 7.74 µM (inactive)
GI50 [16]: 11.6 µM (inactive)
GI50 [17]: 12.8 µM (inactive)
GI50 [18]: 14.5 µM (inactive)

N#Cc1ccccc1/C=N/O
GI50 [1]: > 100 µM (inactive)
GI50 [2]: > 100 µM (inactive)
GI50 [3]: > 100 µM (inactive)
GI50 [4]: > 49.7 µM (inactive)
GI50 [6]: > 100 µM (inactive)
GI50 [7]: > 81.1 µM (inactive)
GI50 [8]: > 100 µM (inactive)
GI50 [9]: > 60.3 µM (inactive)
GI50 [10]: > 100 µM (inactive)
GI50 [11]: > 100 µM (inactive)
GI50 [12]: > 36.9 µM (inactive)
GI50 [13]: > 100 µM (inactive)
GI50 [14]: > 69.5 µM (inactive)
GI50 [15]: > 44.4 µM (inactive)
GI50 [20]: > 100 µM (inactive)
GI50 [19]: > 100 µM (inactive)
GI50 [16]: > 100 µM (inactive)
GI50 [17]: > 100 µM (inactive)
GI50 [18]: > 100 µM (inactive)

COc1cc2cc(C(=O)N3CC(CCl)c4c3cc(N)c3ccccc43)[nH]c2cc1OCCN(C)C (centres undefined)
GI50 [1]: 0.00713 µM (active)
GI50 [2]: < 0.005 µM (active)
GI50 [3]: 0.00705 µM (active)
GI50 [4]: < 0.005 µM (active)
GI50 [5]: 0.027 µM (active)
GI50 [6]: < 0.005 µM (active)
GI50 [7]: < 0.005 µM (active)
GI50 [8]: 0.00644 µM (active)
GI50 [9]: < 0.005 µM (active)
GI50 [10]: 0.00522 µM (active)
GI50 [11]: < 0.005 µM (active)
GI50 [12]: < 0.005 µM (active)
GI50 [13]: < 0.005 µM (active)
GI50 [14]: < 0.005 µM (active)
GI50 [20]: < 0.005 µM (active)
GI50 [16]: 0.00734 µM (active)
GI50 [17]: < 0.005 µM (active)
GI50 [18]: < 0.005 µM (active)

COC(=O)c1c/c(=N\NC(=O)CC(=O)Nc2ccccc2Cl)c2ccccc2o1
GI50 [1]: > 100 µM (inactive)
GI50 [2]: > 100 µM (inactive)
GI50 [3]: > 100 µM (inactive)
GI50 [4]: > 100 µM (inactive)
GI50 [6]: 65.3 µM (inactive)
GI50 [7]: > 100 µM (inactive)
GI50 [8]: > 100 µM (inactive)
GI50 [9]: > 100 µM (inactive)
GI50 [10]: > 100 µM (inactive)
GI50 [11]: 91.4 µM (inactive)
GI50 [12]: > 100 µM (inactive)
GI50 [13]: > 100 µM (inactive)
GI50 [14]: > 100 µM (inactive)
GI50 [15]: > 100 µM (inactive)
GI50 [20]: > 100 µM (inactive)
GI50 [19]: > 100 µM (inactive)
GI50 [16]: > 100 µM (inactive)
GI50 [17]: > 100 µM (inactive)
GI50 [18]: > 100 µM (inactive)
